# Columns and labels:
# mTOR = biological target: T1, mTOR (Rattus norvegicus, UniProt P42346); test: Immune complex assay of mTOR activity after incubating 293T cells with compound; assay type: cell-based; conditions: for mTOR activity: 293T cells incubated with increasing concentrations
# T1 construct: expressed in transfected cells; host or cells: 293T
# Protocol: (§1) FIGS. 12A & 12B represent data showing the effects of incubating cells with increasing concentrations of FTS and GTS on mTOR activity and mTOR association with raptor and mLST8. AU1-mTOR, HA-raptor, and HAmLST8 were overexpressed in 293T cells. The cells were then incubated for 1 h with increasing concentrations of FTS (●, ▴, ▪) or GTS (∘, Δ, □) before extracts were prepared. Immunoprecipitations were then conducted with anti-AU1 antibodies. mTOR kinase activity (●, ∘) was determined by measuring ^32P incorporation into [His^6]PHAS-I in immune complex kinases assays performed with [γ-^32P]ATP. The relative amounts of HA-raptor (▴, Δ) and HA-mLST8 (▪, □) that coimmunoprecipitated with AU1-mTOR were determined after immunoblotting with anti-HA antibodies. The results (mean values±S.E. from 3 experiments) are expressed as percentages of the mTOR activity (FIG. 12A) or coimmunoprecipitating proteins (FIG. 12B) from samples incubated without FTS or GTS, and have been corrected for the amounts of AU1-mTOR immunoprecipitated.
# FIG. 12A presents results of immune complex kinases assays with AU1-mTOR from extracts of 293T cells that had been incubated with increasing concentrations of FTS.
# Immune complex assay of mTOR activity—AU1-mTOR was immunoprecipitated by using anti-AU1 antibody bound to protein G-agarose beads as described previously (McMahon, et al., (2002) Mol. Cell. Biol. 22, 7428-7438). Endogenous mTOR was immunoprecipitated in the same manner, except that mTAb1 was used instead of anti-AU1 antibody. To measure kinase activity, exhaustively washed immune complexes were suspended in 20 μl of Buffer A (50 mM NaCl, 0.1 mM EGTA, 1 mM dithiothreitol (DTT), […], 10 mM Na-HEPES, and 50 mM β-glycerophosphate, pH 7.4.). The kinase reactions were initiated by adding 20 μl of Buffer A supplemented with 2 mM [γ-^32P]ATP, 20 mM MnCl2 and 40 μg/ml of [His^6]PHAS-I. In experiments in which the effects of wortmannin were investigated, DTT was omitted from the reactions, and [His^6]PHAS-I that had been reduced and alkylated with N-ethylmaleimide was used as substrate. Reactions were terminated after 10 min at 30° by adding SDS sample buffer. Samples were subjected to SDS-PAGE and the relative amounts of ^32P incorporated into [His^6]PHAS-I were determined.
# mTOR-raptor complex = biological target: T2, mTOR-raptor complex (Rattus norvegicus, UniProt P42346+Q8N122); test: Coimmunoprecipitation of raptor with mTOR from 293T cells incubated with compound; assay type: cell-based; conditions: overexpressed in 293T cells, increasing concentrations, 1 h
# T2 construct: rows headed: amount of HA-raptor that coimmunoprecipitated with AU1-mTOR; other: extracts incubated with increasing concentrations; amount of HA-raptor that coimmunoprecipitated with AU1-mTOR; other: overexpressed in 293T cells, increasing concentrati; half maximal effect on raptor dissociation from mTOR; other: AU1-mTOR and HA-raptor overexpressed in 293T cells, 1 h; association of AU1-mTOR and HA-rapto
# Protocol: FIG. 11A & 11B represent data showing FTS inhibits PHAS-I phosphorylation and promotes dissociation of the mTOR-raptor complex in 293T cells. 293T cells were transfected with pcDNA3AU1-mTOR, pcDNA33HARaptor, pcDNA33HA-mLST8, and pCMV-Tag3APHAS-I (FIG. 11A). After 18 h the cells were incubated for 1 h with increasing concentrations of FTS before extracts were prepared. A sample of each extract was subjected to SDS-PAGE and immunoblotted to detect PHAS-I or PThr^36/45. AU1-mTOR was also immunoprecipitated from each extract, and immune complexes were subjected to SDSPAGE and immunoblotted with mTAb2, to detect mTOR, and with anti-HA antibodies, to detect HA-mLST8 and HA-raptor. Nontransfected 293T cells were incubated with increasing concentrations of FTS for 1 h before extracts were prepared. mTOR was immunoprecipitated with mTAb1, and samples were subjected to SDS-PAGE.
# as §1
# To investigate further the inhibitory effects of FTS on mTOR signaling, the effect of the drug on the association of mTOR, raptor, and mLST8 was determined. AU1-mTOR and HA-tagged forms of raptor and mLST8 were overexpressed in 293T cells, which were then incubated with increasing concentrations of FTS before AU1-mTOR was immunoprecipitated with anti-AU1 antibodies. Immunoblots were prepared with anti-HA antibodies to assess the relative amounts of HA-raptor and HA-mLST8 that coimmunoprecipitated with AU 1-mTOR (FIG. 11A).
# Results obtained with overexpressed proteins are not necessarily representative of responses of endogenous proteins. Therefore, experiments were conducted to investigate the effect FTS on the endogenous TORC1 in nontransfected cells. […]
Structure (SMILES),mTOR activity (mTOR),amount of HA-raptor that coimmunoprecipitated with AU1-mTOR (mTOR-raptor complex),"IC50 (mTOR; 293T cells incubated 1 h, read-out: half maximal effect on inhibition of AU1-mTOR activity)"
"CC(C)=CCC/C(C)=C/CSc1ccccc1C(=O)O [GTS, S-geranylthiosalicylic acid, reference compound]",slightly decreased,relatively little effect,–
"CC(C)=CCC/C(C)=C/CC/C(C)=C/CSc1ccccc1C(=O)O [FTS, farnesylthiosalicylic acid]",stable decrease in mTOR activity,progressive decrease,20 to 30 µM

# Reference: US20070037887A1, “Blockade of mtor to prevent a hormonal adaptive response” (University of Virginia Patent Foundation, priority 2003, published 2007)
